{
  "source": "patent US20240240189A1",
  "about": "“CANCER TREATMENT BY TARGETING PROTEINS OR INTERACTIONS OF EPHRINB-RGS3-KIF20A-SEPT7 AXIS” (CITY OF HOPE, priority 2021, published 2024)",
  "key": {"Daoy human MB cells": {"tested_on": "Daoy human MB cells", "experiment": "Growth assay of Daoy cells", "assay_type": "cell-based", "conditions": "three Daoy clones, inducible expression of shKIF20A726 (+Dox)", "procedure": "(§1) Generation of Daoy cell lines with stably integrated Tet-on inducible shRNA expression system: Daoy cells were infected with lentivirus of Tet-on inducible human KIF20A shRNA-726 and GFP-Luciferase prepared from Tet-pLKO-hushKIF20A726 plasmid and Hiv7CMVGFP-IRES-Luciferase plasmid, respectively. The transduced Daoy cells were selected for stable single clones with Puromycin (1 μg/ml, Sigma-Aldrich) and GFP fluorescence signal in DMEM (Invitrogen) with 10% fetal bovine serum. Single clones were picked up by glass cloning cylinders (Sigma-Aldrich) in 10 cm plate.\nGrowth Assay of tumor cells: Mouse MB cell lines, or Daoy clones stably integrated with Tet-on inducible human KIF20A shRNA-726, or Wild Type Daoy cells, were seeded into multiple wells of 24 well plates (2×10^4 or 1×10^4 cells per well). Cells in quadruplicate were then dissociated and counted using a hemocytometer at consecutive days after initial plating."}, "GISC017 cells [1]": {"tested_on": "GISC017 cells", "experiment": "Cell cycle exit analysis (EdU/Ki67) in GISC017 cells", "assay_type": "cell-based, human", "conditions": "shRNA expression vs scrambled shRNA", "from_the_text": "(§2) To further investigate the relevance of KIF20A in human brain tumors, inhibition of KIF20A in patient-derived GBM-initiating/stem cells (GISCs) was examined. As the ERKS axis functions in different types of brain tumor-initiating/stem cells, data obtained from study of GISCs would be applicable to other brain tumor cell types. Multiple lines of patient-derived GISCs were obtained from Dr. Christine Brown. These low passaged GISCs could be expanded in cultures and could engraft in NSG mice^43, 44. FIG. 11 summarizes the results of testing KIF20A in one GISC line (GISC017) by constitutive expression of a control scrambled shRNA or shKIF20A726 (shRNA targeting hKIF20A) in pNUT vector-based lentiviral expression system. […] In the above cell cycle exit analysis, co-staining of differentiation markers (e.g. βlll-tubulin, DCX, or NeuN) was performed, however, these markers were detected in EdU^+Ki67^− (cells having left the cell cycle) but also in some EdU^+Ki67^+ (cells staying in the cell cycle) cells, which might reflect a technical artefact observed with progenitor/stem cells in culture. […]"}, "KIF20A [2]": {"tested_on": "KIF20A", "experiment": "KIF20A knockdown in GISC017 cells by lentiviral shRNA", "assay_type": "cell-based, human", "conditions": "constitutive lentiviral expression, vs scrambled shRNA", "from_the_text": "as §2"}, "Daoy cells": {"tested_on": "Daoy cells", "experiment": "Intracranial Daoy tumor transplantation in NSG mice, bioluminescence imaging and survival", "assay_type": "in vivo, mouse", "conditions": "Daoy Clone #2 in cerebellum of NSG mice", "from_the_text": "Expression of the two factors was highly correlated. […] Tumor growths were monitored by bioluminescence imaging. Doxycycline treatment started at four weeks after initial cell implantation (indicated with a red font and line). The treatment group of mice was first given doxycycline by gavage for two consecutive days and was then fed with doxycycline-containing food for the entire duration of the experiment.\nIntracranial tumor transplantation and Bioluminescence imaging: NSG mice (8-10 weeks old) were anesthetized with isoflurane and oxygen and placed under microscope. […] The transplanted mice were then monitored weekly with luciferase-based bioluminescence imaging for tumor growth. […] Tumor growths in two mice groups were monitored weekly by bioluminescence imaging. Survivals of mice after cell transplantation were recorded and analyzed.\nTo examine the function of KIF20A in tumor formation by Daoy cells, 10^5 Clone #2 cells were injected into the cerebellum of each recipient NSG mouse using a method previously described^22. Growth of tumor cells was then monitored by bioluminescence imaging. […] The mice were then kept on doxycycline-containing food continuously and were monitored for tumor growth by bioluminescence imaging."}, "GISC017 cells [3]": {"tested_on": "GISC017 cells", "experiment": "GISC017 xenograft in brains of NSG mice", "assay_type": "in vivo", "conditions": "GISC017 clones with Tet-inducible shKIF20A726 in NSG mouse brain, doxycycline treatment", "procedure": "FIG. 12a: NSG mice were injected with GISC017 cells stably integrated with Tet-inducible shRNA and luciferase. Treatment with doxycycline started at 10 days after cell implantation (indicated by the red line). FIG. 12b: Survival data of the mice were analyzed by Kaplan-Meier plot.\nGISC017 cell clones stably integrated with a Tet-inducible shKIF20A726 and luciferase expression cassette were established."}, "KIF20A [4]": {"tested_on": "KIF20A", "experiment": "Western blot of KIF20A in Daoy clones with Tet-on shKIF20A726", "assay_type": "cell-based, human", "conditions": "three Daoy clones, doxycycline induction of Tet-on shKIF20A726", "procedure": "Western Blot: Daoy cell clones stably integrated with Tet-on shKIF20A726 were cultured with or without Doxycycline induction for 3 days. These Daoy cells were washed with PBS, lysed with 2×SDS loading buffer and boiled for 5 minutes. Denatured proteins were resolved by SDS-PAGE and transferred to a PVDF membrane for Western blot detection by KIF20A (L13) antibody (1:500) and HRP-conjugated Donkey anti-Goat second antibody (1:2500) with chemiluminescent substrate (ThermoFisher Scientific, Cat: 34095).\nas §1, with “plate. Three clones were obtained and tested for growth ability and doxycycline (0.5 μg/ml) inducibility using growth curve assay, western blots and luciferase reporter assay system. Clone #2 was selected for further use.” for “plate.”"}, "GISC017 cells [5]": {"tested_on": "GISC017 cells", "experiment": "Flow cytometry-based cell cycle analysis (4N DNA content) of GISC017 cells", "design": "species or system human", "conditions": "vs scrambled shRNA", "from_the_text": "as §2"}},
  "note": "Entries after “also recorded” stand apart in the source; their conditions may differ.",
  "data": [
    {"substance": "5′-GAGGAGTGTCTACATCGAA-TTCAAGAGA-TTCGATGTAGACACTCCTC-3′ (GAGGAGTGTCTACATCGAATTCAAGAGATTCGATGTAGACACTCCTC; hairpin, further chemistry not given here) [shKIF20A726, shRNA targeting human KIF20A transcript]", "values": [
      {"measurement": "cell proliferation", "setting": "Daoy human MB cells", "result": "significantly inhibit the proliferation of all three clones; also recorded: inhibit cell proliferation"},
      {"measurement": "cell cycle exit (EdU+Ki67− cells)", "setting": "GISC017 cells [1]", "result": "more cells exiting the cell cycle; also recorded: increase of GFP+EdU+Ki67− cells"},
      {"measurement": "KIF20A level", "setting": "KIF20A [2]", "result": "strongly knocked down KIF20A level; also recorded: significant knockdown of KIF20A expression"},
      {"measurement": "brain tumor growth (bioluminescence imaging)", "setting": "Daoy cells; doxycycline from four weeks after implantation vs untreated", "result": "significantly slower growth of brain tumors; also recorded: inhibited tumor growth"},
      {"measurement": "survival (Kaplan-Meier)", "setting": "Daoy cells; doxycycline treatment vs untreated", "result": "better overall survival"},
      {"measurement": "animal survival", "setting": "GISC017 cells [3]", "result": "prolong animal survival"},
      {"measurement": "tumor xenograft growth", "setting": "GISC017 cells [3]", "result": "suppress tumor xenograft growth"},
      {"measurement": "KIF20A expression (Western blot)", "setting": "KIF20A [4]", "result": "significant knockdown of KIF20A expression in all three cell clones; also recorded: reduction of KIF20A expression"},
      {"measurement": "4N DNA contents / cytokinesis", "setting": "GISC017 cells [5]", "result": "comparable; also recorded: did not cause obvious change in cytokinesis"}
    ]}
  ]
}
